Laboratory results reported in PubChem BioAssay (NCI).
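GI50 marks 50% less growth. TGI: total growth inhibition.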

Experiments:
Test in all cases: DTP human tumour cell line panel, 384-well format
PC-3 prostate = system: PC-3 prostate
HOP-62 NSCLC = system: HOP-62 NSCLC
OVCAR-8 ovarian = system: OVCAR-8 ovarian
ACHN renal = system: ACHN renal
OVCAR-3 ovarian = system: OVCAR-3 ovarian
UACC-62 melanoma = system: UACC-62 melanoma
MDA-MB-435 melanoma = system: MDA-MB-435 melanoma
M14 melanoma = system: M14 melanoma
CCRF-CEM leukemia = system: CCRF-CEM leukemia
RXF 393 renal = system: RXF 393 renal
OVCAR-5 ovarian = system: OVCAR-5 ovarian
HOP-92 NSCLC = system: HOP-92 NSCLC
OVCAR-4 ovarian = system: OVCAR-4 ovarian
NCI-H23 lung = system: NCI-H23 lung
UACC-257 melanoma = system: UACC-257 melanoma
COLO 205 colon = system: COLO 205 colon
IGROV1 ovarian = system: IGROV1 ovarian
NCI-H460 NSCLC = system: NCI-H460 NSCLC
T-47D breast = system: T-47D breast
BT-549 breast = system: BT-549 breast
SF-268 CNS = system: SF-268 CNS
SK-MEL-28 melanoma = system: SK-MEL-28 melanoma
SK-MEL-5 melanoma = system: SK-MEL-5 melanoma
NCI/ADR-RES ovarian = system: NCI/ADR-RES ovarian
HCT-116 colon = system: HCT-116 colon
NCI-H226 lung = system: NCI-H226 lung
SF-539 CNS = system: SF-539 CNS
SK-MEL-2 melanoma = system: SK-MEL-2 melanoma
MCF7 breast = system: MCF7 breast
HCT-15 colon = system: HCT-15 colon
LOX IMVI melanoma = system: LOX IMVI melanoma
NCI-H322M lung = system: NCI-H322M lung
U251 glioblastoma = system: U251 glioblastoma
SNB-19 CNS = system: SNB-19 CNS
MALME-3M melanoma = system: MALME-3M melanoma
HCC-2998 colon = system: HCC-2998 colon
SW-620 colon = system: SW-620 colon
UO-31 renal = system: UO-31 renal
KM12 colon = system: KM12 colon
786-0 renal = system: 786-0 renal
TK-10 renal = system: TK-10 renal
RPMI-8226 leukemia = system: RPMI-8226 leukemia
MDA-MB-468 breast = system: MDA-MB-468 breast
NCI-H522 lung = system: NCI-H522 lung
SR leukemia = system: SR leukemia
HL-60(TB) leukemia = system: HL-60(TB) leukemia
A498 renal = system: A498 renal
SN12C renal = system: SN12C renal
CAKI-1 renal = system: CAKI-1 renal
A549 NSCLC = system: A549 NSCLC
HT29 colon = system: HT29 colon
DU-145 prostate = system: DU-145 prostate
MOLT-4 leukemia = system: MOLT-4 leukemia
K-562 leukemia = system: K-562 leukemia

CN[C@@H](C)C(=O)N[C@H](C(=O)N1CCC[C@H]1C(=O)N[C@H]1c2ccccc2C[C@H]1OCC#CC#CCO[C@@H]1Cc2ccccc2[C@@H]1NC(=O)[C@@H]1CCCN1C(=O)[C@@H](NC(=O)[C@H](C)NC)C1CCCCC1)C1CCCCC1
GI50 (PC-3 prostate): 1.81 µM | TGI (PC-3 prostate): 3.85 µM | GI50 (HOP-62 NSCLC): 0.0349 µM | TGI (HOP-62 NSCLC): 0.441 µM | GI50 (OVCAR-8 ovarian): 0.135 µM | TGI (OVCAR-8 ovarian): 2.22 µM | GI50 (ACHN renal): 15.3 µM | TGI (ACHN renal): 28.6 µM | GI50 (OVCAR-3 ovarian): 1.32 µM | TGI (OVCAR-3 ovarian): 2.64 µM | GI50 (UACC-62 melanoma): 1.65 µM | TGI (UACC-62 melanoma): 3.01 µM | GI50 (MDA-MB-435 melanoma): < 0.01 µM | TGI (MDA-MB-435 melanoma): 2.03 µM | GI50 (M14 melanoma): 1.9 µM | TGI (M14 melanoma): 3.49 µM | GI50 (CCRF-CEM leukemia): < 0.01 µM | TGI (CCRF-CEM leukemia): 1.31 µM | GI50 (RXF 393 renal): < 0.01 µM | TGI (RXF 393 renal): < 0.01 µM | GI50 (OVCAR-5 ovarian): 12.3 µM | TGI (OVCAR-5 ovarian): 24.8 µM | GI50 (HOP-92 NSCLC): < 0.01 µM | TGI (HOP-92 NSCLC): 0.641 µM | GI50 (OVCAR-4 ovarian): < 0.01 µM | TGI (OVCAR-4 ovarian): < 0.01 µM | GI50 (NCI-H23 lung): < 0.01 µM | TGI (NCI-H23 lung): 0.0576 µM | GI50 (UACC-257 melanoma): 1.52 µM | TGI (UACC-257 melanoma): 2.85 µM | GI50 (COLO 205 colon): 1.37 µM | TGI (COLO 205 colon): 2.66 µM | GI50 (IGROV1 ovarian): 1.78 µM | TGI (IGROV1 ovarian): 3.46 µM | GI50 (NCI-H460 NSCLC): 1.77 µM | TGI (NCI-H460 NSCLC): 3.19 µM | GI50 (T-47D breast): 1.73 µM | TGI (T-47D breast): 3.17 µM | GI50 (BT-549 breast): < 0.01 µM | TGI (BT-549 breast): 1.92 µM | GI50 (SF-268 CNS): 1.67 µM | TGI (SF-268 CNS): 3.04 µM | GI50 (SK-MEL-28 melanoma): 1.37 µM | TGI (SK-MEL-28 melanoma): 2.67 µM | GI50 (SK-MEL-5 melanoma): < 0.01 µM | TGI (SK-MEL-5 melanoma): 0.0446 µM | GI50 (NCI/ADR-RES ovarian): 4.65 µM | TGI (NCI/ADR-RES ovarian): 35.5 µM | GI50 (HCT-116 colon): 1.67 µM | TGI (HCT-116 colon): 3.12 µM | GI50 (NCI-H226 lung): 6.96 µM | TGI (NCI-H226 lung): 19.8 µM | GI50 (SF-539 CNS): 1.64 µM | TGI (SF-539 CNS): 3.01 µM | GI50 (SK-MEL-2 melanoma): < 0.01 µM | TGI (SK-MEL-2 melanoma): < 0.01 µM | GI50 (MCF7 breast): 1.33 µM | TGI (MCF7 breast): 2.62 µM | GI50 (HCT-15 colon): 18 µM | TGI (HCT-15 colon): 31.9 µM | GI50 (LOX IMVI melanoma): 2.12 µM | TGI (LOX IMVI melanoma): 3.56 µM | GI50 (NCI-H322M lung): 2.25 µM | TGI (NCI-H322M lung): 5.31 µM | GI50 (U251 glioblastoma): 1.49 µM | TGI (U251 glioblastoma): 2.82 µM | GI50 (SNB-19 CNS): 1.56 µM | TGI (SNB-19 CNS): 2.97 µM | GI50 (MALME-3M melanoma): < 0.01 µM | TGI (MALME-3M melanoma): < 0.01 µM | GI50 (HCC-2998 colon): 1.62 µM | TGI (HCC-2998 colon): 2.98 µM | GI50 (SW-620 colon): 2.16 µM | TGI (SW-620 colon): 4.3 µM | GI50 (UO-31 renal): 19.5 µM | TGI (UO-31 renal): 33.7 µM | GI50 (KM12 colon): 1.65 µM | TGI (KM12 colon): 3.03 µM | GI50 ([…]-0 renal): 2.92 µM | TGI (786-0 renal): 11.4 µM | GI50 (TK-10 renal): 14 µM | TGI (TK-10 renal): 27 µM | GI50 (RPMI-8226 leukemia): < 0.01 µM | TGI (RPMI-8226 leukemia): 1.1 µM | GI50 (MDA-MB-468 breast): < 0.01 µM | TGI (MDA-MB-468 breast): < 0.01 µM | GI50 (NCI-H522 lung): < 0.01 µM | TGI (NCI-H522 lung): 1.02 µM | GI50 (SR leukemia): 0.0188 µM | TGI (SR leukemia): 1.05 µM | GI50 (HL-60(TB) leukemia): < 0.01 µM | TGI (HL-60(TB) leukemia): < 0.01 µM | GI50 (A498 renal): 13.5 µM | TGI (A498 renal): 26.3 µM | GI50 (SN12C renal): 2.14 µM | TGI (SN12C renal): 3.61 µM | GI50 (CAKI-1 renal): 15.1 µM | TGI (CAKI-1 renal): 28.4 µM | GI50 (A549 NSCLC): 5.33 µM | TGI (A549 NSCLC): 18.6 µM | GI50 (HT29 colon): 1.66 µM | TGI (HT29 colon): 3.1 µM | GI50 (DU-145 prostate): 1.04 µM | TGI (DU-145 prostate): 2.53 µM | GI50 (MOLT-4 leukemia): 1.48 µM | TGI (MOLT-4 leukemia): 2.8 µM | GI50 (K-562 leukemia): 2.32 µM | TGI (K-562 leukemia): 6.27 µM
